Series [1] can be described thus: Circular dichroism spectra and thermal melting of CMPs. The class given is physicochemical. To be noted: for Tm (CD melting curve, triple helix): after UV exposure (photo-decaged), heating rate 60° C./hr, Tm about 10° C. higher than equilibrium Tm. Here is the method:
Circular dichroism spectroscopy. CD spectra were collected on JASCO 715 spectrophotometer equipped with a JASCO PTC-348 WI temperature controller and quartz cells (0.1 mm path length). CMP solutions (320 μL, 150 μM in 1×PBS) were stored at 4° C. for at least 24 hours before measurement. For photo-decaging, samples were exposed to 365 nm UV light for at least 30 minutes before the 4° C. incubation. The thermal melting studies were performed by measuring the ellipticity at 225 nm with 60° C./hr heating rate. Raw CD signal was normalized to mean residue ellipticity based on the peptide's length and concentration (Biopolymers 95:94-104 (2011)). Melting temperatures (Tm) were determined by fitting the mean residue ellipticity to a two-state model (Org Lett 8:4735-4738 (2006)). To measure the refolding kinetics, CMP solution was thermally denatured at 75° C. for 10 minutes in a cuvette and rapidly quenched to 25° C. in an ice-water bath, after which the CD signal at 225 nm was observed over time at 25° C. The CD spectra of intact and MMP-1 cleaved type I collagen (FIG. 12) was measured in 90 μg/mL protein solutions in 20 mM acetic acid buffer at 22° C. The 37° C. thermal stability profile (FIG. 2E, inset) was generated by monitoring the ellipticity at 222 nm immediately after transferring the cuvette to a temperature controlled cuvette holder pre-set to 37° C. The Tm values reported in this study are approximately 10° C. higher than the equilibrium Tm due to high heating rate (60° C./hr) (Biopolymers 73:682-688 (2004)).
Synthesis of fluorescently labeled collagen mimetic peptides. Non-caged CMPs were synthesized using Fmoc-mediated solid-phase chemistry by manual or automated synthesis as described previously.2,4 The caged NB(GPO)9 (SEQ ID NO: 12) was prepared by introducing Fmoc(N-o-nitrobenzyl)Gly-OH (synthesized according to Tatsu et al. 2,5) in the middle of the standard solid-phase peptide synthesis. The Hyp residue following the NBGly was conjugated using 9 molar equiv of Fmoc-Hyp(tBu)-OH, 8.8 molar equiv of PyBroP, and 20 molar equiv of DIPEA for over 24 hr to overcome the low reactivity caused by the steric hindrance of the NB cage group. The remaining sequence including the GGG spacer was completed by HBTU chemistry, followed by on-resin labeling with 6 molar equivalent of CF or TAMRA activated by 6 molar equivalent of PyAOP for over 24 hr. The full length fluorescent CMPs were cleaved from resin by treating the resin with TFA/TIS/H2O (95:2.5:2.5) for 3 hr and the cleaved peptide was purified by reverse phase HPLC on a Vydac C18 column using a linear gradient mixture of water (0.1% TFA) and acetonitrile (0.1% TFA) (5-45% acetonitrile gradient in 40 min). The purified peptides were analyzed by MALDI-TOF MS (FIG. 27): m/z calculated 2975.1 [M+Na+] for CF(GPO)9 (SEQ ID NO: 10), found 2975.0 [M+Na+]; m/z calculated 2975.1 [M+Na+] for ^SG9P9O9 (SEQ ID NO: 5), found 2973.5 [M+Na+]; m/z calculated 3110.2 [M+Na+] for CF^NB(GPO)9 (SEQ ID NO: 4), found 3109.4 [M+Na+]; m/z calculated 2975.1 [M+Na+] for CF(GPO)9 (SEQ ID NO: 10) [CF^NB(GPO)9 (SEQ ID NO: 4) after UV decaging], found 2974.1 [M+Na+]; m/z calculated 3142.3 [M+H+] for TAMRA-NB(GPO)9 (SEQ ID NO: 12), found 3141.4 [M+H+]; m/z calculated 3007.2 [M+H+] for TAMRA-(GPO)9 (SEQ ID NO: 15), [TAMRA-NB(GPO)9 (SEQ ID NO: 12) after decaging], found 3006.3 [M+H+]. CD spectra and CD melting curves of the labeled CMPs were acquired in PBS solutions using a JASCO 715 CD spectrophotometer. The solutions were incubated for at least 24 hours at 4° C. prior to CD experiment to ensure folding (FIG. 28).

The target in series [2] is T1, type I collagen films (fibrillar collagen) (Rattus norvegicus, UniProt P02454+P02466).
T1 construct: Collagen solution (200 μL, 3.71 mg/mL, type I rat tail, BD Science); purchased BD Science; host or cells: rat tail
Briefly: Photo-triggered CMP binding assay on collagen films. The note with it: 4° C., overnight incubation. Here is the method:
(§1) Collagen/gelatin binding assays. Collagen solution (200 μL, 3.71 mg/mL, type I rat tail, BD Science) in 0.02 N acetic acid was added to each well of a 96-well black/clear-bottom plate (Costar) and air-dried. To make gelatin films, the same collagen solution was denatured at 70° C. for 15 minutes before applying to the well. The dried films were neutralized and washed with 1×PBS buffer (pH 7.4) and deionized water. PBS solution of carboxyfluorescein-labeled caged CMP (40 μL, 50 μM, unless indicated otherwise) pre-equilibrated at 4° C. was added onto each reconstituted collagen or gelatin film and exposed to 365 nm UV light (10 mW/cm^2, from mercury arc lamp) for 11 minutes on ice. Wells for the UV-negative control groups were covered with aluminum foil to block UV exposure. After incubation at 4° C. for over 3 hours (unless indicated otherwise), the unbound materials were removed by rinsing with PBS buffer and deionized water. The films were allowed to dry in dark, after which the fluorescence (ex: 489 nm, em: 533 nm) was measured with a SpectraMax Gemini XPS microplate reader (Molecular Devices). Each binding experiment was done in triplicate.

Series [3] addresses T2, thermally-denatured collagen (gelatin) films (Rattus norvegicus, UniProt P02454+P02466).
T2 construct: To make gelatin films, the same collagen solution was denatured at 70° C. for 15 minutes; purchased BD Science; host or cells: rat tail
The experiment in a line: Photo-triggered CMP binding assay on gelatin films. To be noted: after photo-cleavage, type I gelatin films. Here is the method:
as §1

Series [4] has as its system PC-3 prostate tumor xenografts (PC3-PIP, PC3-flu). The experiment in a line: In vivo tumor targeting, NIRF imaging, prostate xenografts. Set-up: species or system mouse. To be noted: 3.7 nmol, tail vein, UV-activated, imaging over four days (to 96 hours PI).
Series [5] has as its system Panc02 and Panc198 tumors. The experiment in a line: In vivo tumor targeting, NIRF imaging, pancreatic xenografts. Set-up: species or system mouse. To be noted: approximately 4 nmol, tail vein; 96 hr post injection. Here is the method: Murine Panc02 and human Panc198 cells were acquired from the ATCC (Rockville, Md.) and cultured in RPMI1640 supplemented with 10% FBS, 10 μg/mL of streptomycin and 10 I.U./mL of penicillin at 37° C. in 5% CO2 and humidified air until 80-95% confluence. The cells were then trypsinized and formulated at either 2×10^6 cells/100 μL (Panc198) or 1×10^6 cells/100 μL (Panc02) followed by subcutaneous inoculation into 12-week-old female athymic nu/nu mice (NCI). Panc198 and Panc02 cells were inoculated subcutaneously behind the left and right shoulder, respectively. When the Panc02 xenograft reached 4-6 mm in diameter (˜2 weeks after inoculation), each mouse was intravenously administered with solution containing 4 nmol of photo-activated IR-Ahx-(GPO)9 (SEQ ID NO: 9) or IR-Ahx-^SG9P9O9 (SEQ ID NO: 8) and 1 nmol of cysteine, followed by MMPsense injection and NIRF imaging as described.

Series [6] relates to collagen remodeling in bones and cartilages. To be noted: 4 nmol intravenous, photo-decaged, four days after injection.
Series [7] concerns the target T3, MMP-1 cleaved type I collagen (3/4 and 1/4 fragments) (rat, UniProt P02454 152-1207; P02466 86-1125).
T3 construct: Tested kept at 22 C, after 1 min at 37 C (spontaneously denatured), and as denatured bands in SDS-PAGE; also called MMP-1 digested collagens; MMP-Col
The experiment in a line: fluorescent staining of SDS-PAGE gel.

The target in series [8] is T4, mouse type IV collagen (denatured, reduced, in SDS-PAGE) (mouse, UniProt P02463 28-1669; P08122 26-1707).
T4 construct: also called collagen type IV
T4 sequence (P02463 28-1669, chain 1 of 2): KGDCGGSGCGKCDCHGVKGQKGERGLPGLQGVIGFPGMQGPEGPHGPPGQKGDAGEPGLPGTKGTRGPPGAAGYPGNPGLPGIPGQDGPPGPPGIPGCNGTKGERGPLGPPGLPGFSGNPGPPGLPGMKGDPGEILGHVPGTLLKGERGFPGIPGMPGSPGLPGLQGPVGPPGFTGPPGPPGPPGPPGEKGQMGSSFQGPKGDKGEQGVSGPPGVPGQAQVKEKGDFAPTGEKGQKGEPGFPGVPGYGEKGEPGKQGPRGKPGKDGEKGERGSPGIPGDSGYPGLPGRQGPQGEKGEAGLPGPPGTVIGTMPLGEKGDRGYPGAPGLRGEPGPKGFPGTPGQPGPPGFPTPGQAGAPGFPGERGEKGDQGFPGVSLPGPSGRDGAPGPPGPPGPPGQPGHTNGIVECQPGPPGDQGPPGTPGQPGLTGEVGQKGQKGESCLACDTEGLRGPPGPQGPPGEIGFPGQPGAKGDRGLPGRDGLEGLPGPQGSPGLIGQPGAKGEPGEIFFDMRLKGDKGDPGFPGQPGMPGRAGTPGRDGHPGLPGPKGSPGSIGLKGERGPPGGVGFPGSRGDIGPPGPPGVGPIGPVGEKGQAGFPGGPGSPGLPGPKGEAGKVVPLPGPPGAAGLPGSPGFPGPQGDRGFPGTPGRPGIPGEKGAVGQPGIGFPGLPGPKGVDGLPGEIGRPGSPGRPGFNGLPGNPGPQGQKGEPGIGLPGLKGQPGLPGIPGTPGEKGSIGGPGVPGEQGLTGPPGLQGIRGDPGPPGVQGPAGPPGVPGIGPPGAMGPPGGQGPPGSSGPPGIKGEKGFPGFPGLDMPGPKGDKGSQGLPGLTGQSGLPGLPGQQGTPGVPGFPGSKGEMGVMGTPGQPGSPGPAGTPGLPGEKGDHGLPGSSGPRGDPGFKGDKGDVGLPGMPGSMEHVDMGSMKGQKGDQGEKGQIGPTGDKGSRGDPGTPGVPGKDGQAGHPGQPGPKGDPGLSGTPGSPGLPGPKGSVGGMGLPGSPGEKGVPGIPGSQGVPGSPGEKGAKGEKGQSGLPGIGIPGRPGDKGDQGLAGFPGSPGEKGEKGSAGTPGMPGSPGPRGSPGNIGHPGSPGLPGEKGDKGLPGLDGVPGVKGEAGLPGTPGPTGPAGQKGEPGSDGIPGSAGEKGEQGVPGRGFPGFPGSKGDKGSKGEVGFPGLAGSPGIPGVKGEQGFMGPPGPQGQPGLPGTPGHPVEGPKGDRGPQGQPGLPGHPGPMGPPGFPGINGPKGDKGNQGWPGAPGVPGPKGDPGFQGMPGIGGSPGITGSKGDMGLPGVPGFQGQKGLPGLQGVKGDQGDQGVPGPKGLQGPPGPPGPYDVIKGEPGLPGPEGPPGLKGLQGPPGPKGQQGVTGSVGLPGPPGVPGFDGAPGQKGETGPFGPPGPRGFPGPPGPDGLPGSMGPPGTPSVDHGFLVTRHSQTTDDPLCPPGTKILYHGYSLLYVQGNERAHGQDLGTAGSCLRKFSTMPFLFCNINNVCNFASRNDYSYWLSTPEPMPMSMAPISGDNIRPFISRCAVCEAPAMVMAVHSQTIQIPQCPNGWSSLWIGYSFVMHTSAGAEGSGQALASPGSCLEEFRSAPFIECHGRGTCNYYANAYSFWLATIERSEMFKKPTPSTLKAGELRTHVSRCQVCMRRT
T4 sequence (P08122 26-1707, chain 2 of 2): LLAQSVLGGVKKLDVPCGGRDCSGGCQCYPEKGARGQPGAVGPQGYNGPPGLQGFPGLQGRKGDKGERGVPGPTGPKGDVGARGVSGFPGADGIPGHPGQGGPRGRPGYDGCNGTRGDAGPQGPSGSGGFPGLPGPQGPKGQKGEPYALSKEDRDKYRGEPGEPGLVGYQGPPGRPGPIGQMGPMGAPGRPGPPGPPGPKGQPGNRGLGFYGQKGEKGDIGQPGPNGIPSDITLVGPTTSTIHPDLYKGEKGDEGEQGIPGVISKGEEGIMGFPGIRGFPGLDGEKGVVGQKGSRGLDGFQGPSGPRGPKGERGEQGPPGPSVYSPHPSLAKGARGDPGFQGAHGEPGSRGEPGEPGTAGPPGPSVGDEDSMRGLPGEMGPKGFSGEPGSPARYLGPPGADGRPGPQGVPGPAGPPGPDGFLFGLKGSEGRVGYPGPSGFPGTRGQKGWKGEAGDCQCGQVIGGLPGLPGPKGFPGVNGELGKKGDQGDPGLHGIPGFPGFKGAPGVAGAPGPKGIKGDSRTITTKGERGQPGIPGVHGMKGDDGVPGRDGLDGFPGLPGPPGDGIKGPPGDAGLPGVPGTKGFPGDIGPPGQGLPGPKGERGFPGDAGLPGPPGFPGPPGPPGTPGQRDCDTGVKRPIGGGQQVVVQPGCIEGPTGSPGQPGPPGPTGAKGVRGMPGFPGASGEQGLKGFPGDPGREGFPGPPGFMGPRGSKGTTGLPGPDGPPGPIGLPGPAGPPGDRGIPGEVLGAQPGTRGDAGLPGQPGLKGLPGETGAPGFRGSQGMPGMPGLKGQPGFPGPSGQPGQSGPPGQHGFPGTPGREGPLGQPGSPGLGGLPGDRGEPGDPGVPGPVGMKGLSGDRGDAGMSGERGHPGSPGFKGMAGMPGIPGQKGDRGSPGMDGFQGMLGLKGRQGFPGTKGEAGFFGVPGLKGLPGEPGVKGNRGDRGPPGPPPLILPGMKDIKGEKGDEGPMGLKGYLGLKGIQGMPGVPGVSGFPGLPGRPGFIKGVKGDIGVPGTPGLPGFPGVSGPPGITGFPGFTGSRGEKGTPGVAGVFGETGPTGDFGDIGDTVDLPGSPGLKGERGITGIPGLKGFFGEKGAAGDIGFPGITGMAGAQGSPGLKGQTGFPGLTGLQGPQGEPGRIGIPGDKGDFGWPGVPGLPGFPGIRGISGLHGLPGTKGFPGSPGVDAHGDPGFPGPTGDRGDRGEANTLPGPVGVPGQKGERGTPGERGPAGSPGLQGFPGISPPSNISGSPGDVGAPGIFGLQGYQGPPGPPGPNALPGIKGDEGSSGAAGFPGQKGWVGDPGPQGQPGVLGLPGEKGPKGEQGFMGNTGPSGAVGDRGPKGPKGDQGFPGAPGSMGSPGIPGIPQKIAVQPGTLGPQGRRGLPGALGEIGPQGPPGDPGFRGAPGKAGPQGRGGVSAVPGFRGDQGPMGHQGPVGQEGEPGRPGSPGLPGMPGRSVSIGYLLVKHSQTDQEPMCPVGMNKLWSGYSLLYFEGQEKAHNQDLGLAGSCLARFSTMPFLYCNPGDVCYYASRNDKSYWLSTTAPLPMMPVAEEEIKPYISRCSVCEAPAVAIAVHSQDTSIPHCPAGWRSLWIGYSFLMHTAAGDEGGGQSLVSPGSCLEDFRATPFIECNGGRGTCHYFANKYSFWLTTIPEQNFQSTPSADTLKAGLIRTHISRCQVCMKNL
The experiment in a line: fluorescent staining of SDS-PAGE gel.

Non-standard residues stand in square brackets, D forms with d. No end group written: not given here. *: point of attachment. IRDye800CW = CC1(C)C(/C=C/C2=C(Oc3ccc(S(=O)(=O)O)cc3)C(=C/C=C3/N(CCCCS(=O)(=O)O)c4ccc(S(=O)(=O)O)cc4C3(C)C)/CCC2)=[N+](CCCCCC(=O)*)c2ccc(S(=O)(=O)[O-])cc21; Hyp = O=C(O)[C@@H]1C[C@@H](O)CN1; CF = 5(6)-carboxyfluorescein; Ahx = NCCCCCC(=O)O

With CF-GGG-(GPP)4^NBGPP(GPP)4 [CF^NB(GPP)9], in series [1], the “Tm (CD melting curve, triple helix)” value was 51 °C.

For “CF-GGG-(G^DP^DP)4^NBG^DP^DP(G^DP^DP)4 [CF^NB(G^DP^DP)9]”, the “Tm (CD melting curve, triple helix)” value in series [1] came to 51 °C. The “UV triggered collagen binding as fraction of that of CF^NB(GPP)9” value in series [2] is given as “about one fourth”. Also, the “level of gelatin binding relative to CF^NB(GPP)9” value in series [3] is “an order of magnitude lower”.

Regarding “IR-Ahx-^SG9P9O9: IRDye-800CW labeled sequence-scrambled control peptide with Ahx spacer, SEQ ID NO: 8 ({IRDye800CW-Ahx}-PGPGPGPPPPGPGPPPGPPPGGPPPPG; numbers in words are those of the source; also: 9 O residues (G9P9O9), places not given here)”, the “triple helical folding capacity (CD melting)” value in series [1] (sequence-scrambled peptide) is on record as “no triple helix forming capacity”. In addition, the entries for the “tumor accumulation (in vivo NIRF imaging)” value in series [4] and in series [4] (listed as IR-Ahx-SG9P9O9) were “minimal accumulation at the tumor sites” and “cleared out”, respectively. The “tumor accumulation (NIRF imaging)” value in series [5] is recorded as “no peptide accumulation”.

Regarding “IR′-Ahx-^SG9P9O9: IRDye 680RD labeled sequence-scrambled peptide, SEQ ID NO: 8 ({IRDye 680RD-Ahx}-PGPGPGPPPPGPGPPPGPPPGGPPPPG; not fully specified; numbers in words are those of the source; also: 9 O residues (G9P9O9), places not given here)”, the “skeletal uptake (whole body NIRF)” value in series [6] is on record as “signal only from the digestive system”.

B1: CF^SG9P9O9, sequence-scrambled control peptide, CF-GGG-PGOGPGPOPOGOGOPPGOOPGGOOPPG (peptide)
peptide: {CF}-GGGPG[Hyp]GPGP[Hyp]P[Hyp]G[Hyp]G[Hyp]PPG[Hyp][Hyp]PGG[Hyp][Hyp]PPG
notes: Cannot fold into a triple helix; also called ^9G9P9O9; ^CG9P9O9
For B1, the binding result in series [7] and in series [8] was “no binding (tested: 6 µM)” each time.

The values are drawn from US10426850B2, “Collagen mimetic peptides for targeting collagen strands for in vitro and in vivo imaging and therapeutic use” (The Johns Hopkins University, priority 2011, dated 2019).
